Several values for one entry are separate records, joined by “and”; a condition that tells them apart may be missing. Equal values may be shown once.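 These data come from cells grown in 96-well plates and exposed to compound for 48 hours at five concentrations. At the GI50, growth is halved. TGI marks complete inhibition of growth.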
Assays:
Test in all cases: NCI-60 cell line screen, 48 h
BT-549 breast = system: BT-549 breast
CAKI-1 renal = system: CAKI-1 renal
HOP-92 NSCLC = system: HOP-92 NSCLC
KM12 colon = system: KM12 colon
MCF7 breast = system: MCF7 breast
MDA-MB-231 breast = system: MDA-MB-231 breast
NCI-H460 lung = system: NCI-H460 lung
NCI-H522 lung = system: NCI-H522 lung
SF-295 CNS = system: SF-295 CNS
UACC-62 melanoma = system: UACC-62 melanoma

Structure (SMILES)	GI50 (BT-549 breast)	TGI (BT-549 breast)	GI50 (CAKI-1 renal)	TGI (CAKI-1 renal)	GI50 (HOP-92 NSCLC)	TGI (HOP-92 NSCLC)	GI50 (KM12 colon)	TGI (KM12 colon)	GI50 (MCF7 breast)	TGI (MCF7 breast)	GI50 (MDA-MB-231 breast)	TGI (MDA-MB-231 breast)	GI50 (NCI-H460 lung)	TGI (NCI-H460 lung)	GI50 (NCI-H522 lung)	TGI (NCI-H522 lung)	GI50 (SF-295 CNS)	TGI (SF-295 CNS)	GI50 (UACC-62 melanoma)	TGI (UACC-62 melanoma)
CCCN1CCC(Oc2cc(Nc3nc(Nc4cccc(F)c4C(N)=O)c4cc[nH]c4n3)c(OC)cc2Cl)CC1	3.75 µM	7.36 µM	3.58 µM	7.64 µM	0.309 µM	3.42 µM	2.72 µM	6.11 µM	0.907 µM	3.97 µM	2.16 µM	5.52 µM	1.45 µM	4.79 µM	3.98 µM	7.9 µM	3.81 µM	8.53 µM	3.61 µM	7.09 µM
Clc1cccc(-c2cc(-c3ccc4c(c3)OCCO4)[nH]n2)c1	6.32 µM	47 µM	1.61 µM	36.3 µM	7.74 µM	42.8 µM	1.01 µM	38.5 µM	4.25 µM	32.9 µM	7.75 µM	47.6 µM	1.01 µM	31.8 µM	1.48 µM	37.2 µM	9.71 µM	45.1 µM	2 µM	44.8 µM
CCOc1cc(/C=C/C(=O)CC(=O)/C=C/c2ccc(OC(=O)CNc3nc4ccc(OC)cc4s3)c(OCC)c2)ccc1OC(=O)CNc1nc2ccc(OC)cc2s1	2.62 µM	8.78 µM	11.4 µM	53.3 µM	18 µM	56.3 µM	2.96 µM	12.1 µM	2.54 µM	10.8 µM	13.8 µM	60 µM	5.1 µM	23.4 µM	12.6 µM	34.4 µM	15.4 µM	33.2 µM	7.6 µM	20.3 µM
O=c1[nH]c(=O)n(Cc2ccc(C34CC5CC(CC(C5)C3)C4)c(O)c2)cc1F	14.4 µM	28.1 µM	17.7 µM	37.5 µM	13.5 µM	26.4 µM	12.1 µM	28.5 µM	11.9 µM	30.9 µM	14.3 µM	28.9 µM	16.5 µM	43 µM	13.1 µM	31.9 µM	9.62 µM	27.2 µM	6.93 µM	20.3 µM
CN1CCN(CCCOC(=O)c2c3c(n4ccccc24)C(=O)c2ncccc2C3=O)CC1	0.426 µM	16.3 µM	< 0.01 µM	0.366 µM	0.254 µM	16.8 µM	0.0669 µM	13.8 µM	< 0.01 µM	0.0178 µM	2.53 µM	37.2 µM	< 0.01 µM	< 0.0118 µM	< 0.01 µM	< 0.0164 µM	< 0.0117 µM	0.199 µM	< 0.01 µM	0.0324 µM
CN(C)CCN1C(=O)c2cccc3cc(N)cc(c23)C1=O	11.2 µM	28.3 µM and 13.1 µM	1.77 µM and 1.11 µM	11.1 µM and 7.59 µM	2.28 µM	15.4 µM and 13.1 µM	3.32 µM	26.5 µM and 25.5 µM	1.38 µM	22.2 µM and 18.5 µM	8.01 µM	34.8 µM and 9.64 µM	–	5.34 µM and 5.95 µM	3.21 µM	11.6 µM and 10.3 µM	2.29 µM	9.31 µM and 18.4 µM	2.89 µM	11.7 µM and 8.02 µM
Cc1cc2c(cc1Cl)SC(=Nc1ccc(Cl)cc1)N(S(=O)(=O)c1ccc(Br)s1)S2(=O)=O	19.2 µM	48.8 µM	19.5 µM	42.2 µM	12.1 µM	46.1 µM	16.2 µM	37.7 µM	46.3 µM	> 100 µM	12.9 µM	38.9 µM	35.2 µM	> 100 µM	37.3 µM	> 100 µM	24.7 µM	60.5 µM	12 µM	25.3 µM
O=C(Nc1ccc(Nc2ccc3c(c2)C(=O)c2ccccc2C3=O)c2c1C(=O)c1ccccc1C2=O)c1ccccc1	–	> 100 µM	–	> 100 µM	–	> 100 µM	–	> 100 µM	–	> 100 µM	–	> 100 µM	–	35.4 µM	–	> 42.1 µM	–	> 100 µM	–	> 100 µM
C=C(C)[C@@H]1CC[C@]2(C(=O)OC)CC[C@]3(C)[C@H](CC[C@@H]4[C@@](C)(CCc5nn[nH]n5)[C@H](C(=C)C)CC[C@]43C)[C@@H]12	33.2 µM	> 100 µM	10.2 µM	35 µM	8.08 µM	22.3 µM	10.7 µM	25 µM	17 µM	70.5 µM	15.5 µM	30.8 µM	20.5 µM	44 µM	17.2 µM	51.5 µM	13.6 µM	44.3 µM	5.35 µM	19.6 µM
CCn1c(-c2nonc2N)nc2cnc(Oc3cccc(NC(=O)c4ccc(OCCN5CCOCC5)cc4)c3)cc21	0.438 µM	15.3 µM	0.116 µM	> 17.9 µM	0.0025 µM	> 25 µM	7.63 µM	> 25 µM	3.87 µM	> 25 µM	1.65 µM	> 25 µM	2.3 µM	> 25 µM	1.41 µM	> 25 µM	0.974 µM	> 16.9 µM	6.39 µM	> 25 µM
CN1CCC2(CC1)C(=O)Nc1cc(NC(=O)c3ccc4c(c3)C[C@@H]3C(C)(C)[C@H](O)[C@H](F)C[C@@]3(C)O4)ccc12	0.0691 µM	20.1 µM	1.34 µM	18.7 µM	1.97 µM	31.1 µM	1.38 µM	17.7 µM	0.0925 µM	21.4 µM	3.36 µM	21.1 µM	0.684 µM	25.4 µM	10.8 µM	33.2 µM	0.0495 µM	0.256 µM	0.405 µM	5.13 µM
COc1cc2c(cc1OCCCCCOc1ccc(-c3nc4ccccc4s3)cc1)N=C[C@@H]1CCCN1C2=O	3.45 µM	16.4 µM	2.36 µM	> 62 µM	0.886 µM	3.62 µM	4.38 µM	22.9 µM	1.21 µM	9.77 µM	1.02 µM	4.2 µM	1.27 µM	7.66 µM	1.72 µM	13.7 µM	2.37 µM	> 100 µM	3.27 µM	7.93 µM
N#Cc1nc2cc(Cl)c(Cl)cc2nc1-c1ccc(Cl)cc1	> 100 µM	> 100 µM	34 µM	> 66.8 µM	27.8 µM	> 100 µM	> 60.5 µM	> 100 µM	37.3 µM	> 100 µM	22.3 µM	> 73.4 µM	37.6 µM	> 100 µM	51.5 µM	> 100 µM	19.6 µM	43.1 µM	33.2 µM	> 70.9 µM
COc1cc(OC)c(OC)cc1/C=C/c1ccccn1	–	> 10 µM	–	> 10 µM	–	> 10 µM	–	> 10 µM	–	> 10 µM	–	> 10 µM	–	> 10 µM	–	> 10 µM	–	> 10 µM	–	> 10 µM
COc1cccc2c1C(=O)c1c(O)c3c(c(O)c1C2=O)C[C@@](O)(/C(C)=N/NC(=O)c1cccc([N+](=O)[O-])c1)C[C@@H]3OC1CC(N)C(O)C(C)O1 (some centres undefined)	0.714 µM	4.43 µM	0.411 µM	2.74 µM	0.201 µM	4.71 µM	0.404 µM	10.9 µM	0.0613 µM	18.5 µM	1.59 µM	21.3 µM	0.0548 µM	12.9 µM	0.494 µM	5.96 µM	0.187 µM	0.997 µM	0.199 µM	1.5 µM
COc1cc(-c2csc(NC(=O)Nc3ccc(Cl)cc3)n2)cc(OC)c1OC	2.18 µM	6.26 µM	2.91 µM	11.1 µM	2.12 µM	6.85 µM	2.57 µM	7.9 µM	2.53 µM	10.7 µM	2.99 µM	12.7 µM	3.32 µM	> 48.4 µM	2.34 µM	6.95 µM	2.51 µM	8.45 µM	1.93 µM	4.22 µM
N#CSc1c[nH]c2ccc(/C=C/C(=O)/C=C(O)/C=C/c3ccc4[nH]cc(SC#N)c4c3)cc12	1.52 µM	8.04 µM	1.58 µM	4.1 µM	1.63 µM	4.46 µM	1.66 µM	5.47 µM	0.871 µM	4.15 µM	1.72 µM	3.61 µM	3.01 µM	11.2 µM	0.886 µM	2.79 µM	3.03 µM	13.3 µM	2.11 µM	7.11 µM
CCCCCOC(=O)c1c(C)[nH]c(/C=C2\N=C(c3ccc[nH]3)C=C2OC)c1C	0.0469 µM	1.1 µM	0.0335 µM	0.335 µM	0.0214 µM	0.116 µM	0.0301 µM	1.54 µM	0.0451 µM	1.14 µM	< 0.0162 µM	0.216 µM	0.0309 µM	1.47 µM	0.0392 µM	1.27 µM	0.0966 µM	0.544 µM	0.0213 µM	0.0491 µM

Source: PubChem BioAssay (NCI)
